Results reported in BindingDB's records for patent US20250171467 (Merck Sharp & Dohme, 2025).

Target: T1, Ceramide glucosyltransferase (Homo sapiens, UniProt Q16739)
T1 sequence (Q16739 whole entry): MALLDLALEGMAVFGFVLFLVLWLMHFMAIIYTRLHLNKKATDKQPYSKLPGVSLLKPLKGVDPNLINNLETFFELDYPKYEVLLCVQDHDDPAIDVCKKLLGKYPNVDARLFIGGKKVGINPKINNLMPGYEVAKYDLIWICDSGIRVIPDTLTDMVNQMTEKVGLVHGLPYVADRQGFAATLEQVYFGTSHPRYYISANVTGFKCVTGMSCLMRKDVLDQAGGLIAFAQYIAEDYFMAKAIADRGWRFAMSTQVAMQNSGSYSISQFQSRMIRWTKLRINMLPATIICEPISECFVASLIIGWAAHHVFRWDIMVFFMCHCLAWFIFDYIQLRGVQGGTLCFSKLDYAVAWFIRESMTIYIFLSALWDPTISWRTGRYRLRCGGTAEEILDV
Assay: UDP-Glo Glucosylceramide Synthase Biochemical Assay
Method: An aliquot of GCS enzyme (1.5 μg crude golgi preparation, total protein) and titrated test compound were aliquoted to each well and incubated for 30 minutes at room temperature. […] An equivalent volume of substrate mixture was then added to each well. Following a 20 h incubation at room temperature to allow for GCS turnover of substrate, an equal volume of UDP detection reagent (Promega) was added to each well and incubated for an additional 75 minutes at room temperature to simultaneously convert the accumulated UDP product into ATP and generate light in a luciferase reaction. The generated light was detected using a luminometer.

COc1ccc(-n2nc(C(=O)N3CCCN(CCF)CC3)c3c2CCOC3)cc1 [US20250171467, Compound 11]
EC50: 12 µM
